Series [1] can be described thus: Stability / hydrolysis in PBS at 37 degrees (Example 6). The format is physicochemical. To be noted: PBS at 37 degrees. Here is the method: Samples were analyzed using HPLC UV.
For series [2] the following is noted: female, human, 15 min, 10 microM.
Procedure: Human belly adipose tissue was obtained from obese female subjects that underwent esthetic surgery. Tissue was pottered (Potter RW 19 Nr 29795 of Janke & Kunkel KG) in PBS solution (Irvine Scientific) with 5 mM D(+)-glucose monohydrate at 530 rpm using a Teflon potter tip.
Tissue suspension (1, 7.5, 25 or 240 mg fat/ml PBS, or plasma) was stirred and 1.98 ml aliquots were transferred to polypropylene 2 ml screwcap vials (Sarstedt). […] When inhibition of lipase was studied, propranolol or orlistat were added 5 minutes before addition of the prodrug esters (FIG. 10).
15 minutes after addition of the prodrug, lipolysis was stopped by adding 20 microliter of 1.8% HCl. Samples were spun down (13000 rpm for 3 min at 4° C.) and supernatants were stored at −18° C. for analysis.
Samples were analyzed using HPLC UV. A Gilson 234 auto-injector and Shimadzu hplc pump (10 AdVP) was used in conjunction with a shimadzu UV (10AVp) set at 270 nm. Samples were separated using a reversed phase HPLC column (Thermo BDS Hypersil C18 150 mm×2.1 mm, 3 micrometer). The mobile phase consisted of 1.6 g KH2PO4, 110 mg sodium 1-heptane sulfonate, 1 1 ultrapure water, 15 mL methanol and 1 ml acetic acid at a flowrate of 0.175 ml/min.
Series [3] deals with human fat suspension. In words: In vitro glycerol production assay, 250 mg/ml human fat suspension (Example 9). The format is cell-based. The conditions noted are these: for Glycerol production (FIG. 20): 250 mg/ml human fat suspension, 4 hrs at 37 degrees Celsius; for Glycerol content: 4 hrs at 37° C. The method, then: Test compounds were added at a concentration as indicated and vials were incubated for 4 hrs at 37° C. Vials were mixed every hour. Glycerol production in 4 hrs was calculated by analyzing glycerol content of the control (a suspension which was not incubated but instead immediately frozen) vs control samples that were incubated for 4 hours. The produced glycerol quantity was set as 100%. The glycerol content of experimental samples was expressed as % of the control.
Experimental samples were frozen after incubation. The fat pellet was removed and upon defrosting, samples were spun down (13000 rpm for 15 min at 4° C.), and clear supernatant was pipetted off and frozen until analysis.
Glycerol was analyzed using an enzymatic kit (Glycerol Assay Kit, Sigma Aldrich). Briefly, in a 96 well plate (Corning), 100 microliter glycerol assay reaction mix was added to 10 microliter samples of supernatant and left to incubate for 20 minutes after shaking for 15 seconds. Absorbance was read by a platereader (Thermo Multiskan FC) at 570 nm. A glycerol calibration line (0.015 microM-1000 microM) was used for quantification.

Series [4] concerns lipase. To be noted: inhibitor added 5 minutes before, relative to control; for Effect on hydrolysis of octopamine decanoate in fat suspension: octopamine decanoate 10 microM; for Effect on hydrolysis of synephrine decanoate in fat suspension: synephrine decanoate 10 microM.
Series [5] can be described thus: In vitro ester hydrolysis assay, control in PBS without tissue (spontaneous hydrolysis). The format is physicochemical. To be noted: 30 degrees. Here is the method:
(§1) Octopamine released was measured using a 50 ml beaker thermostated at 30 degrees. 30 ml PBS (stirred) was pumped at 1 ml/min (Gilson minipulse 3) through a UV detector (SPD-10Avp Shimadzu UV/VIS) set at 280 nm and 2.56 AUFS. The outlet was recirculated back to the beaker. UV signal was recorder on a flatbed recorder (Kipp), set at 1 mm/min and 1 mV gain.
(§2) Octopamine and octopamine decanoate solutions (1 mM) were made in ultrapure water adding 1 microliter/ml of 1.8% hydrochloride acid. Octopamine decanoate was sonicated for 30 min at 30 degrees.
(§3) Upon stabilization of the UV detector on PBS, 1 ml of tissue suspension was added to the PBS. Upon stabilization of the UV signal, 5 ml of 1 mM of octopamine decanoate was added. Control experiments were performed without addition of tissue suspension in order to monitor spontaneous hydrolysis of decanoate ester in PBS.

A short description of series [6]: In vitro ester hydrolysis assay in PBS/human fat suspension. The format is in vitro ADME. The conditions noted are these: PBS/human fat tissue at concentrations three times higher than rat tissue, in 110 min. The method, then:
Abdominal fat tissue was harvested from male wistar rats (400 g, Harlan Zeist) and stored at −80° C. until use. Human fat tissue was obtained from esthetic surgery and stored at −80° C. until use. Tissue was thuraxed (80 mg/ml for rat tissue and 240 mg/ml for human tissue) for 1 min in Phosphate buffered saline (PBS (Irvine Scientific).
as §1, §2, §3

Series [7] deals with human fat suspension. In words: In vitro assay of glycerol production in human fat (Example 3). The format is cell-based. The conditions noted are these: end concentration 10 microM, 2 hours at 37 degrees Celsius; P=0.047. The method, then: Human fat tissue was pottered using a teflon potter in 10 ml PBS with 6 mM Glucose (2.4 gram fat tissue per 10 ml). The suspension was transferred to a 50 ml beaker and was gently stirred at 37 degrees Celsius to maintain the homogeneous nature. 0.3 ml suspension was transferred to 2 ml reaction vials, spiked with octopamine (end concentration 1 microM) and octopamine decanoate (end concentration 10 microM and PBS/glucose were added until 2 ml end volume. Vials were incubated at 37 degrees Celsius for 2 hours.
Samples were spun off at 4000 rpm for 2 min and 10 microliter samples were taken after removal of floating fat with a tissue.
Samples were analyzed using an enzymatic kit (Sigma Aldrich) and fluorescence intensity was measured using direct flow injection (Vici valve in combination with Shimadzu 10 ADvp HPLC pump at 0.15 ml/min, thermo 15*2.1 C18 column prior to valve and using ultrapure water as mobile phase) of 20 microliter into a HPLC fluorescence detector (Shimadzu RF 10Ax1). Calibration was performed by preparation of calibration samples 2-1000 microM.

Series [8] has as its system Male wistar rats. In words: In vivo effect of hydrogel treatment on waist, weight and plasma glycerol of rats (Example 5). Further details: species or system rat. The method, then:
Male wistar rats (approx. 500 g) were weight daily and waistline was measured. Animals were shaven once weekly at least 12 hours before next treatment to ensure wound healing.
Animals were first treated for 1 month with carbomer hydrogel not containing prodrugs (twice daily abdominal application 3 by 3 cm) , after which animals were treated with 0.5 ml carbomer hydrogel containing 5 mg/ml octopamine decanoate (application concentration 0.277 mg/cm^2). Tail vena blood draws (100 microliter plasma, 5 microliter heparine 500 IE per 100 microliter blood) were taken on the day −8, 21, 36 (start of compound treatment), 51 and 58. Blood was spun off (10 min 14 KRPM) and plasma was stored at −80.
Blood samples were analyzed for glycerol using an enzymatic kit (Sigma Aldrich) and fluorescence intensity was measured using direct flow injection (Vici valve in combination with shimadzu 10 ADvp hplc pump at 0.15 ml/min, thermo 15*2.1 C18 column prior to valve and using ultrapure water as mobile phase) of 20 microliter into a HPLC fluorescence detector (Shimadzu RF 10Axl). Calibration was performed by preparation of calibration samples 2-1000 microM.

Series [9] is described as follows: Skin and fat penetration assay, cubes of human fat with skin (Example 8). Format: in vitro ADME. Here is the method: Cubes of human fat (5×5×5 cm) with skin attached from obese female subjects that underwent esthetic surgery was dissected at 4° C. Cubes were transferred to containers so the skin would overlay the rim of the container. 0.25 ml of hydrogels comprising 2.75 mg/ml free octopamine, 5 mg/ml octopamine decanoate or 3.98 mg/ml octopamine pentanoate were applied once and left to penetrate for 20 hrs. Cubes were subsequently frozen at −80° C.
Upon defrosting, skin was carefully removed taking care not to contaminate the underlying fat. The fat was dissected to yield a column of 1×1 cm of fat that was directly under the site of application. The column was sliced to yield 0.5 cm thick slices covering 0-2cm fat depth under the site of application. Tissue was sonicated in 5 ml PBS (5 mM glucose), samples were spun down (13000 rpm for 30 min at 4° C.). Clear supernatant was removed with an injection needle and syringe and frozen until analysis. Analysis of octopamine was performed as described in Example 7.

For series [10], the system named is human volunteers. The series is described as follows: Application on human volunteers: waistline and skinfold (Example 10). Format: in vivo. Here is the method: For abdominal/hip experiments 2 male volunteers […] (BMI 25.5 and 28 resp.) monitored belly circumference, and skinfold at belly and hip on a daily basis (8 am mornings). Blood pressure and body weight was monitored daily. […] Hydrogel was applied daily or twice daily as indicated using a 5 ml syringe to measure volume. For abdominal experiments, the indicated volume of hydrogel was applied on the belly around the belly button in a radius of 10 cm. The same volume was applied for hip areas. For leg experiments, 2.5 ml was applied on each leg. Skinfold was assessed by measuring thickness of skin at hips and belly 4 cm from belly button using a skinfold measuring device ([…]-120). […] Experiments are the average of two experiments (n=2). […] Experiments are an average of 2 or 3 runs (n=2-3).

Series [11] is described as follows: Plasma levels of octopamine in human volunteers (Example 10). Format: in vivo. The conditions noted are these: human, in vivo. The method, then:
After thorough washing of hands, blood was sampled using […]. Blood (40 microliter) was sampled using a capillary that protruded the cap of the vial and spun down into 300 microliter vials containing 10 microliter of heparin 20 IE/ml. Plasma was pipetted off and transferred to 300 microliter vials and stored at -20° C. until analysis. Octopamine was analyzed as described in Example 7. […] FIG. 17b), and of octopamine pentanoate (3.98 mg/ml, 2.5 ml, once daily); FIG. 17c). Experiments are an average of one or two experiments (n=1-2).

In series [12] the test system is human volunteers. In words: Blood pressure, heart rate and side effects in human volunteers (Example 10). To be noted: humans.
Where [13] appears, read: hydrogel 5 mg/ml, 5 ml twice daily on belly and hips.

Where a name gives a salt, the structure may show the parent alone.

On to `CCCCCCCCCC(=O)Oc1ccc(C(O)CNC)cc1` (centres unmarked) [synephrine decanoate, 4-(1-hydroxy-2-(methylamino)ethyl)phenyl decanoate], for which, in series [1], the “Hydrolysis in PBS compared with plasma or fat tissue” value is reported as “much lower rate”. The “Base level of hydrolysis in fat suspension” value in series [2] is listed as 40-45%.

Regarding `CC(C)(C)NCC(O)COc1cccc2[nH]c(=O)[nH]c12` (centres unmarked) [CGP12177], the “Glycerol production (FIG. 20)” value in series [3] is listed as “increased”.

With `CCCCCCCCCCC[C@@H](C[C@@H]1OC(=O)[C@H]1CCCCCC)OC(=O)[C@H](CC(C)C)NC=O` [Orlistat], in series [4], the “Effect on hydrolysis of octopamine decanoate in fat suspension” value is recorded as “further suppresses” and the “Effect on hydrolysis of synephrine decanoate in fat suspension” value is “further suppresses”.

Turning to `Cn1c(=O)c2c(ncn2C)n(C)c1=O` [caffeine], the “Glycerol production (FIG. 20)” value in series [3] is “increased”.

Regarding `C[C@H](Cc1ccc2c(c1)OC(C(=O)[O-])(C(=O)[O-])O2)NC[C@H](O)c1cccc(Cl)c1.[Na+].[Na+]` [CL 316243], the “Glycerol production (FIG. 20)” value in series [3] was “increased”.

Regarding `CCOC(=O)COc1ccc2c(c1)C[C@@H](NC[C@H](O)c1cccc(Cl)c1)CC2` [SR 58611A, Amibegron], the “Glycerol production (FIG. 20)” value in [3] is “increased”.

Turning to `COC(=O)[C@@H]1[C@H]2C[C@H]3c4[nH]c5ccccc5c4CCN3C[C@@H]2CC[C@@H]1O` [yohimbine, Yohimbine], the “Glycerol production (FIG. 20)” value in series [3] is reported as “increased”.

In the case of `CCc1ccccc1OC[C@@H](O)CN[C@H]1CCCc2ccccc21` [SR 59230], the “Glycerol production (FIG. 20)” value in series [3] is given as “reduced”.

In the case of `CCCCCCCCCC(=O)Oc1ccc(C(O)CN)cc1` (centres unmarked) [octopamine decanoate, 4-(2-amino-1-hydroxyethyl)phenyl decanoate], the “Spontaneous hydrolysis into octopamine, rate” value in [5] is listed as 10 % per 110 min. Besides, the Conversion by hydrolysis entry in series [6] is given as “over 40%”. Besides, the “Glycerol production (levels)” value in series [7] is “reached significance”. In addition, the Animal weights result in series [8] (0.5 ml hydrogel 5 mg/ml twice daily abdominal) is recorded as “remained inclining according to their growth curve”. Further, in [8] (0.5 ml hydrogel 5 mg/ml twice daily abdominal, after 3 weeks of treatment), the Reduction of waistline entry is on record as “about 10%”. The Plasma glycerol levels result in [8] (after 15 days of treatment, P=0.101) is reported as “increased”. In addition, the Plasma glycerol levels entry in series [8] (after 22 days of treatment, P=0.024) is on record as “reaching significance”. In addition, the “Hydrolysis in PBS compared with plasma or fat tissue” value in series [1] was “much lower rate”. Further, the “Penetration through skin and fat tissue” value in [9] was “penetrate through both skin and fat tissue”. In addition, in series [10] (humans n=2, hydrogel on belly and hips, 2.5 ml once daily or 5 ml twice daily, same molar concentration, after 16 days), the Decrease of waistline result is listed as “about 4%”. In addition, the “Reduction of skinfold (belly and hip)” value in series [10] (hydrogel 5 mg/ml, 5 ml twice daily, in 20 days) was 10-20%. Besides, the “Plasma levels of free octopamine upon administration of hydrogel” value in series [11] is reported as “did not result in unacceptable plasma levels”. In addition, the “Base level of hydrolysis in fat suspension” value in series [2] is reported as 40-45%. In addition, in series [12] (setting [13]), the “Blood pressure (systole and diastole)” value is recorded as “remained normal”; the Heart rate entry was “remained normal”. The Side effects result in series [12] (topical hydrogel treatment regimes) is “No side effects were reported”.

For the compound `Cc1cccc(C)c1N=C1NCCCS1` [xylazine, Xylazine], in [3], the “Glycerol production (FIG. 20)” value is recorded as “reduced”.

For `CNCC(O)c1ccc(O)cc1` (racemic) [synephrine, p-synephrine, reference compound], in series [1], the “Stability in PBS” value is given as “stable”.

Take `CC(C)NC[C@H](O)COc1cccc2ccccc12` [propranolol, (S)-(-)-Propranolol HCl]: the Glycerol content entry in series [3] (concentrations above 1000 nM) is “decreased”. Besides, the Glycerol content entry in series [3] (concentrations from 0.1 to at least 1000 nM) is given as “more or less constant”. Also, in series [4], the “Effect on hydrolysis of octopamine decanoate in fat suspension” value was “decreases” and the “Effect on hydrolysis of synephrine decanoate in fat suspension” value is listed as “decreases”.

Source of the values: patent publication US20210220241A1, “Body Sculpting” (Sculpt B.V., priority 2014, published 2021).
